# Key:
# Assay in all cases: IC50 (cell viability, 72 h) (ln(µM))
# [1] = tested on: ORL-48
# Experimental: (§1)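 Discovery screen of OSCC cell lines in 1,536-well plates. Cells were treated 24 h after seeding with 7 concentrations spanning a 1,000-fold half-log range for 72 h, and viability was read by CellTiter-Glo 2.0 and normalised to DMSO (1) and medium-only (0) controls. IC50 comes from a two-parameter logistic nonlinear mixed-effects fit and is reported as natural log of IC50 in µM.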
# [2] = tested on: HSC-2
# Experimental: as §1
# [3] = tested on: ORL-204
# Experimental: as §1
# [4] = tested on: ORL-207
# Experimental: as §1
# [5] = tested on: BICR10
# Experimental: as §1
# [6] = tested on: PE-CA-PJ15
# Experimental: as §1
# [7] = tested on: ORL-188
# Experimental: as §1
# [8] = tested on: ORL-156
# Experimental: as §1
# [9] = tested on: ORL-150
# Experimental: as §1
# [10] = tested on: ORL-214
# Experimental: as §1
# [11] = tested on: ORL-174
# Experimental: as §1
# [12] = tested on: ORL-136
# Experimental: as §1
# [13] = tested on: SAS
# Experimental: as §1
# [14] = tested on: ORL-215
# Experimental: as §1
# [15] = tested on: ORL-166
# Experimental: as §1
# [16] = tested on: SCC-9
# Experimental: as §1
# [17] = tested on: HO-1-u-1
# Experimental: as §1
# [18] = tested on: ORL-195
# Experimental: as §1
# [19] = tested on: ORL-153
# Experimental: as §1
# [20] = tested on: ORL-115
# Experimental: as §1
# [21] = tested on: HSC-4
# Experimental: as §1
Structure (SMILES),IC50 (ln) [1],IC50 (ln) [2],IC50 (ln) [3],IC50 (ln) [4],IC50 (ln) [5],IC50 (ln) [6],IC50 (ln) [7],IC50 (ln) [8],IC50 (ln) [9],IC50 (ln) [10],IC50 (ln) [11],IC50 (ln) [12],IC50 (ln) [13],IC50 (ln) [14],IC50 (ln) [15],IC50 (ln) [16],IC50 (ln) [17],IC50 (ln) [18],IC50 (ln) [19],IC50 (ln) [20],IC50 (ln) [21]
Cc1[nH]c2ccccc2c1CCNCc1ccc(/C=C/C(=O)NO)cc1 [Panobinostat],-2.37,-1.23,-1.01,-2.37,-0.934,-0.846,-2,-2.16,-1.77,-1.97,-2.11,-0.667,-1.8,-1.39,-2.65,0.43,-1.92,-1.26,-2.26,0.481,-0.0634
CO[C@H]1C[C@@H]2CC[C@@H](C)[C@@](O)(O2)C(=O)C(=O)N2CCCC[C@H]2C(=O)O[C@H]([C@H](C)C[C@@H]2CC[C@@H](O)[C@H](OC)C2)CC(=O)[C@H](C)/C=C(\C)[C@@H](O)[C@@H](OC)C(=O)[C@H](C)C[C@H](C)/C=C/C=C/C=C/1C [Rapamycin],-2.12,-2.87,-1.41,-3.35,-2.25,-0.663,-2.93,-3.47,-1.89,-4.26,-3.89,-2.47,-0.895,-0.198,-2.82,-0.629,-2.71,-2.97,-2.68,-0.458,-1.49
C/C=C1\NC(=O)[C@H]2CSSCC/C=C/[C@H](CC(=O)N[C@H](C(C)C)C(=O)N2)OC(=O)[C@H](C(C)C)NC1=O [Romidepsin],-5.62,-4.88,-4.13,-4.74,-4.05,-3.12,-5.03,-4.55,-5.04,-3.64,-5.44,-4.02,-4.87,-4.27,-5.72,-3.68,-5.24,-3.85,-5.8,-3.74,-2.03
CCc1c2c(nc3ccc(O)cc13)-c1cc3c(c(=O)n1C2)COC(=O)[C@]3(O)CC [SN-38],-2.86,-5.53,-5,-5.13,-1.02,-2.9,-4.81,-2.97,-3.32,-5.1,-3.86,-0.854,-5.93,-3.53,-3.75,-0.268,-1.5,-2.3,-4.49,-1.9,-4.28
COCC[n+]1c2c(n(Cc3cnccn3)c1C)C(=O)c1ccccc1C2=O [Sepantronium bromide],-6.01,-5.94,-3.1,-5.9,-2.2,-4.17,-4.09,-6.01,-4.45,-5.54,-4.12,-6.45,-6.78,-3.91,-2.05,-6.15,-3.53,-2.96,-5.11,-1.33,-4.35
CN[C@@H]1C[C@H]2O[C@@](C)([C@@H]1OC)n1c3ccccc3c3c4c(c5c6ccccc6n2c5c31)C(=O)NC4 [Staurosporine],-3.62,-3.4,-2.94,-4.38,-2.87,-1.61,-4.74,-3.75,-2.55,-4.45,-4.98,-1.49,-1.77,-2.53,-4.99,-1.81,-3.13,-2.23,-5.03,-2.54,-2.01
CN(C)C/C=C/C(=O)Nc1ccc(C(=O)Nc2cccc(Nc3ncc(Cl)c(-c4c[nH]c5ccccc45)n3)c2)cc1 [THZ1],-2.1,-2.07,-1.9,-1.93,-1.1,-1.3,-2.18,-2.4,-1.93,-2.58,-2.27,-0.297,-1.01,-2.18,-2.72,-0.456,-2.66,-2.48,-2.01,-1.28,-0.322
CC[C@@]1(O)C(=O)OCc2c1cc1n(c2=O)Cc2cc3c(CN(C)C)c(O)ccc3nc2-1 [Topotecan],-0.589,-2.93,-1.8,-1.86,-0.563,-0.416,-2.17,-0.763,-1.36,-2.24,-1.41,1.32,-2.78,-0.991,-1.82,1.79,-0.253,-0.561,-1.49,-0.116,-1.66
